From the NIST ThermoML archive (doi:10.1021/je060389r)

Experiments:
[1] = 298.15 K, 101 kPa, Liquid; for viscosity: Capillary tube (Ostwald / Ubbelohde) method; for speed of sound: Linear variable-path acoustic interferometer; for mass density: Pycnometric method
[2] = xn = mol fraction of the nth substance listed; details: 298.15 K, 101 kPa, Liquid; for viscosity: Capillary tube (Ostwald / Ubbelohde) method; for speed of sound: Linear variable-path acoustic interferometer; for mass density: Pycnometric method

CC(C)CO [2-methyl-1-propanol]
[1]
Details | mass density [kg/m3] | speed of sound [m/s] | viscosity [mPa·s]
– | 798.2 | 1191.3 | 3.404

CC(C)CO [2-methyl-1-propanol] + CCCCCC
[2]
Details | mass density [kg/m3] | speed of sound [m/s] | viscosity [mPa·s]
x1 = 0.0554 | 660.1 | 1077.5 | 0.323
x1 = 0.104 | 664.9 | 1077.5 | 0.337
x1 = 0.2 | 675.1 | 1080.1 | 0.373
x1 = 0.3274 | 690.1 | 1086.7 | 0.462
x1 = 0.4173 | 701.6 | 1094.1 | 0.547
x1 = 0.4666 | 708.3 | 1099.2 | 0.606
x1 = 0.5057 | 713.8 | 1103.5 | 0.659
x1 = 0.5589 | 721.5 | 1110 | 0.748
x1 = 0.609 | 729 | 1116.9 | 0.859
x1 = 0.7073 | 744.6 | 1132.5 | 1.162
x1 = 0.8051 | 761.2 | 1150 | 1.627
x1 = 0.861 | 771.2 | 1161.3 | 2.004
x1 = 0.9149 | 781.3 | 1172.5 | 2.454
x1 = 0.9376 | 785.7 | 1177.5 | 2.67
x1 = 1 | 798.2 | 1191.3 | 3.404

CC(C)CO [2-methyl-1-propanol] + CCCCCCCC
[2]
Details | mass density [kg/m3] | speed of sound [m/s] | viscosity [mPa·s]
x1 = 0.0589 | 701.5 | 1168.3 | 0.527
x1 = 0.1165 | 704.5 | 1166.5 | 0.535
x1 = 0.205 | 709.8 | 1164.8 | 0.576
x1 = 0.2792 | 714.7 | 1164 | 0.617
x1 = 0.3371 | 718.9 | 1163.1 | 0.663
x1 = 0.4081 | 724.6 | 1162.7 | 0.719
x1 = 0.4662 | 729.6 | 1163.3 | 0.788
x1 = 0.5126 | 733.9 | 1163.7 | 0.85
x1 = 0.6126 | 744.1 | 1166.3 | 1.028
x1 = 0.6615 | 749.5 | 1168.4 | 1.154
x1 = 0.7069 | 754.9 | 1170 | 1.3
x1 = 0.7855 | 765 | 1173.5 | 1.634
x1 = 0.8615 | 775.8 | 1178.6 | 2.102
x1 = 0.9523 | 790.1 | 1187 | 2.875
x1 = 1 | 798.2 | 1191.3 | 3.404

CC(C)CO [2-methyl-1-propanol] + CCCCCCCCCC
[2]
Details | mass density [kg/m3] | speed of sound [m/s] | viscosity [mPa·s]
x1 = 0.0728 | 728.1 | 1228.7 | 0.848
x1 = 0.1021 | 729 | 1226.6 | 0.859
x1 = 0.2032 | 732.6 | 1219.9 | 0.89
x1 = 0.2976 | 736.4 | 1215.2 | 0.934
x1 = 0.3547 | 739 | 1212.2 | 0.976
x1 = 0.4171 | 742.1 | 1209.4 | 1.023
x1 = 0.5016 | 747 | 1206.1 | 1.119
x1 = 0.6084 | 754.2 | 1201.8 | 1.297
x1 = 0.6575 | 758 | 1200.2 | 1.415
x1 = 0.7027 | 761.9 | 1198.4 | 1.543
x1 = 0.8004 | 771.6 | 1195.1 | 1.942
x1 = 0.8952 | 782.9 | 1192.9 | 2.503
x1 = 0.9497 | 790.5 | 1192 | 2.928
x1 = 0.9848 | 795.8 | 1191.8 | 3.249
x1 = 1 | 798.2 | 1191.3 | 3.404

CCCCCCCCCC [decane]
[1]
Details | mass density [kg/m3] | speed of sound [m/s] | viscosity [mPa·s]
– | 725.9 | 1235.4 | 0.845

CCCCCCCCCC [decane] + CC(C)CO
[2], x2 = 0
Details | mass density [kg/m3] | speed of sound [m/s] | viscosity [mPa·s]
– | 725.9 | 1235.4 | 0.845

CCCCCC [hexane]
[1]
Details | mass density [kg/m3] | speed of sound [m/s] | viscosity [mPa·s]
– | 654.9 | 1078.5 | 0.313

CCCCCC [hexane] + CC(C)CO
[2], x2 = 0
Details | mass density [kg/m3] | speed of sound [m/s] | viscosity [mPa·s]
– | 654.9 | 1078.5 | 0.313

CCCCCCCC [octane]
[1]
Details | mass density [kg/m3] | speed of sound [m/s] | viscosity [mPa·s]
– | 698.6 | 1170.9 | 0.518

CCCCCCCC [octane] + CC(C)CO
[2], x2 = 0
Details | mass density [kg/m3] | speed of sound [m/s] | viscosity [mPa·s]
– | 698.6 | 1170.9 | 0.518
